Test results published in patent US20130281462A1, “ARYL DIAMIDINES AND PRODRUGS THEREOF FOR TREATING MYOTONIC DYSTROPHY” (University of Oregon, priority 2012, published 2013).
Entries after “also recorded” stand apart in the source; their conditions may differ. Where two headings read alike, the source gives them in different places. One block for each molecule: values may come before it.

How the values were obtained:
[1] = tested on: INSR minigene exon 11 splicing in HeLa cells expressing 960 CUG repeats; assay: INSR minigene splicing rescue in HeLa cell DM1 model; assay type: cell-based; details: for EC50: HeLa cell DM1 model, exon 11 inclusion, 16-18 hours, read-out: EC50 for rescue of INSR mis-splicing
[2] = tested on: TNNT2 minigene exon 5 splicing in HeLa cells expressing 960 CUG repeats; assay: TNNT2 minigene splicing rescue in HeLa cell DM1 model; assay type: cell-based; details: for EC50: read-out: concentration needed to observe 50% rescue (EC50) of TNNT2 mis-splicing, exon 5 inclusion, 16-18 hours; for rescue of TNNT2 exon 5 mis-splicing: propamidine up to 130 μM
MBNL1/(CUG)4 complex = molecular target: T1, MBNL1/(CUG)4 complex (Homo sapiens, UniProt Q9NR56); assay: competitive EMSA (gel shift assay), disruption of the MBNL1/(CUG)4 complex; assay type: binding
T1 construct: The MBNL1 medium construct (1-260) was purified as previously described; made in house
T1 sequence (Q9NR56 1-260): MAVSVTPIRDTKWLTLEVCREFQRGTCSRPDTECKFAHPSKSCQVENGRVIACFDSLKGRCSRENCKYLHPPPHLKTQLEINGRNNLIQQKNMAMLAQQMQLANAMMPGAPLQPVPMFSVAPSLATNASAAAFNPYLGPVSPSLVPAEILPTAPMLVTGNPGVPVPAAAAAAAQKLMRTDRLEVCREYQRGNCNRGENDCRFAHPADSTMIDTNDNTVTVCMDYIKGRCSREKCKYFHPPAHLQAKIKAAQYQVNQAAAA

water solubility = assay type: physicochemical
Clcn1 exon 7a = Clcn1 exon 7a splicing in vastus muscle of HSALR DM1 mice; assay type: in vivo
Experimental: (§1) Homozygous HSALR transgenic mice in line 20b (FVB inbred background) were previously described (Mankodi et al., Science 289″1769-1773, 2000). Gender-matched mice of 10-14 weeks of age were treated with heptamidine at the indicated dose by daily intraperitoneal injection for 7 days. Control mice received 5% glucose injections. Mice were sacrificed 1 d after the final injection and vastus (quadriceps) muscle was obtained for splicing analysis. Mice in the withdrawal (WD) group were treated with 30 mg/kg heptamidine for 7 days and then left untreated for 10 days before sacrifice. […] RNA was isolated, reverse transcribed, and amplified by PCR, and analyzed on agarose gels using a fluorimager as previously described (Warf et al., Proc. Natl. Acad. Sci. USA 106:18551-18556, 2009).
The HSA^LR DM1 mouse model expresses 220 CUG repeats under the skeletal promoter (Mankodi et al., Science 289″1769-1773, 2000). […] Wild type adult mice include exon 7a of the Clcn1 pre-mRNA at a level of 4±1% while HSA^LR mice include exon 7a at steady state levels of 47±1% (FIG. 3, note that exon 7a inclusion isoforms are subject to nonsense mediated decay).

HSALR mice = assay: electromyography, myotonia grade in vastus muscle of HSALR mice; assay type: in vivo; details: 20 or 30 mg/kg for 7 days, controls grade 3
Experimental: as §1
Electromyography was performed under general anesthesia as described previously (Kanadia, Science 302:1978-1980, 2003). Briefly, at least 10 needle insertions were performed in vastus muscle and myotonic discharges were graded on a four point scale: 0, no myotonia; 1, occasional myotonic discharge in less than 50% of needle insertions; 2, myotonic discharge with more than 50% of insertions; and 3, myotonic discharge with nearly all insertions.

Atp2a1 exon 22 = Atp2a1 exon 22 splicing in vastus muscle of HSALR DM1 mice; assay type: in vivo
Experimental: as §1
The MBNL regulated exon of Atp2a1 (exon 22) is included in the presence of MBNL proteins (positively regulated). Wild type adult mice included this exon 100±1% of the time (FIG. 4). When MBNL proteins are sequestered by the 220 CUG repeats present in HSALR mice, exon 22 inclusion drops to 23±3%. […] Additionally, after being treated with 30 mg/kg heptamidine for 7 d, mice went untreated for 10 days, and splicing of Clcn1 and Atp2a1 was examined. […] The severity of myotonia was graded by insertion of extracellular recording electrodes into muscle tissue (electromyography) under general anesthesia.

[3] = molecular target: T2, MBNL1 (residues 1-260, medium construct) (UniProt Q9NR56 Q9NR56:1-260); assay: EMSA; 250 nM MBNL1, 0.5 nM RNA, 175 mM NaCl, 5 mM MgCl2, 20 mM Tris pH 7.5, heparin 0.1 mg/mL, RT; complex disrupted by diamidines (pentamidine IC50 39 uM, small-molecule competition); details: label: 5'-32P; hairpin with UUCG cap
T2 sequence: T1 sequence (Q9NR56 1-260)
Experimental: The 5′ end labeled (CUG)₄ RNA was heated at 95° C. for 3 minutes in 250 mM NaCl, 25 mM MgCl₂, and 75 mM Tris pH 7.5 by heating at 95° C. for 3 minutes. The reaction was cooled on ice for 5 minutes, BSA and heparin were added, and the reaction cooled another 5 minutes. MBNL1 was then added to the RNA and incubated at room temperature (RT) for 10 minutes. Amidine derivative was added, followed by another 5 minute RT incubation, followed by the addition of bromophenol blue. The final reaction volume of 10 μL was incubated at RT for 25 minutes. Final reaction conditions were 0.5 nM (CUG)₄, 175 mM NaCl, 20 mM Tris pH 7.5, 5 mM MgCl₂, 2 mg/mL BSA, 0.1 mg/mL heparin, 1.25 mM β-mercaptoethanol, 1.25% (v/v) glycerol, 250 μM bromophenol blue, and 250 nM MBNL. Bromophenol blue was added at 250 μM since the activity of pentamidine is dependent upon bromophenol blue in vitro. […] IC₅₀ values were calculated as previously described (Warf et al., Proc. Natl. Acad. Sci. USA 106:18551-18556, 2009). In brief, gels were quantified using ImageQuant™ software (Molecular Dynamics/GE Healthcare, Piscataway, N.J.). The percent of RNA bound was determined by taking the ratio of the RNA:protein complex (including any well shifting) to the total RNA, per lane. IC₅₀ values were determined with KaleidaGraph (Synergy, Reading, Pa.) software using the equation: […]

[4] = competitive EMSA, 250 nM MBNL, 0.5 nM (CUG)4, 250 μM bromophenol blue, ± standard deviation of triplicate, read-out: IC50 of diamidine analogs
[5] = competitive EMSA as in Example 1, Table 2, read-out: IC50 of diamidine derivatives
[6] = 30 mg/kg for 7 days, then 10 days untreated
[7] = HSALR mice, daily intraperitoneal for 7 days

Molecule: N=C(N)c1ccc(OCCCCCCCCCOc2ccc(C(=N)N)cc2)cc1 [Nonamidine]
EC50 [1]: 6 ± 1 µM
rescue of TNNT2 exon 5 mis-splicing [2]: unable to rescue splicing defects before causing significant cell death
concentration that is toxic / causes significant cell death (HeLa cells; HeLa cells, TNNT2 splicing assay): 4 µM
IC50 (MBNL1/(CUG)4 complex; [4]): 14 ± 1 µM

Molecule: N=C(N)c1ccc(OCCc2ccccc2)cc1 [drawing 9 n=2]
IC50 (MBNL1/(CUG)4 complex; [5]): 414 µM

Molecule: CC(=O)ON=C(N)c1ccc(OCCCCCCCOc2ccc(C(N)=NOC(C)=O)cc2)cc1 [acetoxy-amdine derivative of heptamidine]
cell toxicity of prodrugs relative to parent amidine (HeLa cells): less toxic than heptamidine

Molecule: N=C(N)c1ccc(OCCCc2ccccc2)cc1 [drawing 9 n=3]
IC50 (MBNL1/(CUG)4 complex; [5]): 169 µM

Molecule: N=C(N)c1ccc(OCCCOc2ccc(C(=N)N)cc2)cc1 [Propamidine]
EC50 ([1]; Homo sapiens): 64 ± 10 µM
rescue of TNNT2 exon 5 mis-splicing [2]: did not have the desired effect on TNNT2 mis-splicing
concentration that is toxic / causes significant cell death (HeLa cells; human): > 130 µM
IC50 (MBNL1/(CUG)4 complex; [4]): 250 ± 10 µM

Molecule: N=C(N)c1ccc(OCCCCCCCCOc2ccc(C(=N)N)cc2)cc1 [Octamidine]
EC50 [1]: 7 ± 1 µM
rescue of TNNT2 exon 5 mis-splicing [2]: slight rescue of TNNT2 mis-splicing
cell toxicity (HeLa cells): toxicity issues
IC50 (MBNL1/(CUG)4 complex; [4]): 20 ± 1 µM

Molecule: N=C(N)c1ccc(OCCCCCCOc2ccc(C(=N)N)cc2)cc1 [Hexamidine]
EC50 ([1]; Homo sapiens): 15 ± 1 µM
EC50 ([2]; Homo sapiens): 12 ± 3 µM
cell toxicity (HeLa cells): low toxicity
IC50 (MBNL1/(CUG)4 complex; [4]): 26 ± 2 µM

Molecule: CC(=O)ONC(=N)c1ccc(OCCCCCOc2ccc(C(=N)NOC(C)=O)cc2)cc1 [compound 128, 1,5-bis(4-acetoxyamidinophenoxy)pentane (diacetyldiamidoximeester)]
activity of pentamidine prodrugs in the INSR splicing assay ([1]; HeLa cell splicing assay, FIG. 6): showed activity in the splicing assay
cell toxicity of prodrugs relative to parent amidine (HeLa cells): less toxic than pentamidine

Molecule: N=C(N)c1ccc(OCCCCCCCOc2ccc(C(=N)N)cc2)cc1 [Heptamidine]
EC50 ([1]; Homo sapiens): 9 ± 1 µM
water solubility (water solubility): retaining water solubility
EC50 ([2]; Homo sapiens): 15 ± 6 µM
Clcn1 splicing after withdrawal (Clcn1 exon 7a; [6]): exon inclusion levels returned to control HSALA levels; also recorded: complete return to disease state splicing levels
Clcn1 exon 7a inclusion (Clcn1 exon 7a; HSALR mice, 20 mg/kg daily intraperitoneal for 7 days, wild type 4±1%, HSALR 47±1%): 6±1%
rescue of Clcn1 exon 7a mis-splicing (Clcn1 exon 7a; [7]): dose-dependent reduction of exon 7a inclusion; also recorded: Complete rescue
myotonia grade (electromyography) (HSALR mice): grade 1 (occasional myotonic discharge) or grade 0; also recorded: occasional myotonic discharges with less than 50% of insertions (grade 1) or no myotonia (grade 0)
Atp2a1 splicing after withdrawal (Atp2a1 exon 22; [6]): exon inclusion levels returned to control HSALA levels; also recorded: complete return to disease state splicing levels
rescue of Atp2a1 exon 22 missplicing (Atp2a1 exon 22; HSALR mice, 30 mg/kg): about 50%
Atp2a1 exon 22 inclusion (Atp2a1 exon 22; HSALR mice, 30 mg/kg/day for 7 days, wild type 100±1%, HSALR 23±3%): 62±4%
rescue of Atp2a1 exon 22 mis-splicing (Atp2a1 exon 22; [7]): full rescue with heptamidine could not be reached; also recorded: Partial rescue of missplicing
IC50 (MBNL1/(CUG)4 complex; [4]): 20 ± 2 µM

Molecule: GCUGCUGUUCGCUGCUG (ssRNA) [(CUG)4 hairpin RNA]
binding result [3]: binds

Second part, led by results:

EC50 ([1]; Homo sapiens): 31 ± 2 µM
EC50 ([2]; Homo sapiens): 20 ± 4 µM
IC50 (MBNL1/(CUG)4 complex; [4]): 39 ± 2 µM
Molecule: N=C(N)c1ccc(OCCCCCOc2ccc(C(=N)N)cc2)cc1 [Pentamidine, reference compound]
rescue of TNNT2 exon 5 mis-splicing [2]: lowered exon 5 inclusion levels below that of wild type

IC50 (MBNL1/(CUG)4 complex; [5]): 212 µM
Molecule: N=C(N)c1ccc(OCCCCc2ccccc2)cc1 [drawing 9 n=4]

IC50 (MBNL1/(CUG)4 complex; [5]): 199 µM
Molecule: N=C(N)c1ccc(OCCCCCOc2ccccc2)cc1 [drawing 8 n=5]

EC50 [1]: 34 ± 7 µM
EC50 [2]: 23 ± 5 µM
IC50 (MBNL1/(CUG)4 complex; [4]): 85 ± 17 µM
Molecule: N=C(N)c1ccc(OCCCCOc2ccc(C(=N)N)cc2)cc1 [Butamidine]
rescue of TNNT2 exon 5 mis-splicing [2]: lowered exon 5 inclusion levels below that of wild type

IC50 (MBNL1/(CUG)4 complex; [5]): 281 µM
Molecule: N=C(N)c1ccc(OCCCOc2ccccc2)cc1 [drawing 8 n=3]

IC50 (MBNL1/(CUG)4 complex; [5]): 253 µM
Molecule: N=C(N)c1ccc(OCCCCCCCOc2ccccc2)cc1 [drawing 8 n=7]

IC50 (MBNL1/(CUG)4 complex; [5]): 236 µM
Molecule: N=C(N)c1ccc(OCCCCCCOc2ccccc2)cc1 [drawing 8 n=6]

IC50 (MBNL1/(CUG)4 complex; [5]): 209 µM
Molecule: N=C(N)c1ccc(OCCCCOc2ccccc2)cc1 [drawing 8 n=4]
